{
  "source": "BindingDB's records for doi:10.1016/0960-894X(96)00186-2",
  "about": "(1996)",
  "key": {"[1]": {"test": "Compound was tested for binding activity against Opioid receptor kappa 1 in bovine striatal membranes using 1 nM [3H]U-69593 as the radioligand."}, "[2]": {"test": "Compound was tested for binding activity against Opioid receptor delta 1 in bovine striatal membranes using 0.2 nM [3H]p-CI-DPDPE as the radioligand."}},
  "data": [
    {"smiles": "O=C(CSSCC(=O)N[C@@]12CCC(=O)[C@@H]3Oc4c(O)ccc5c4[C@@]31CCN(CC1CCC1)[C@@H]2C5)N[C@@]12CCC(=O)[C@@H]3Oc4c(O)ccc5c4[C@@]31CCN(CC1CCC1)[C@@H]2C5", "note": "[N-CBM-TAMO]", "values": [
      {"measurement": "IC50", "setting": "[1]", "value": 6.3, "unit": "nM"},
      {"measurement": "IC50", "setting": "[2]", "value": 12, "unit": "nM"}
    ]}
  ]
}
